Entries after “also recorded” stand apart in the source; their conditions may differ.
How the values were obtained:
S2+ InsP3R-1 = molecular target: T1, S2+ InsP3R-1 (Rattus norvegicus, UniProt P29994, S1756E); assay: Flash photolysis of caged InsP3 (ci-IP3/PM), Fluo-4, DT-40 3ko cells expressing S2+ InsP3R-1 constructs; format: cell-based; conditions: UV flash 0.5-5 ms
T1 construct: The entire receptor DNA was excised from the plasmid using EcoRI and ligated into the plasmid MXT-1; expressed in transfected cells; host or cells: DT-40 3ko (chicken B cells lacking all InsP3R), co-transfected with m3 muscarinic receptor and HcRed
Protocol: Transfected cells were simultaneously loaded by incubation with the visible wavelength indicator Fluo-4 and a cell permeable form of caged-inositol trisphosphate (ciIP3/PM) for 30 min. Ci-IP3/PM is a homologue of cm-IP3/PM [45] The 2- and 3-hydroxyls of the inositol ring were protected by an isopropylidene group in ci-IP3/PM, and were protected by a methoxymethylene group in cm-IP3/PM. Like cm-IP3/PM, ci-IP3/PM diffuses across cell membranes and induces internal calcium release upon photo-uncaging. A further period of approximately 30 min was allowed for de-esterification of both dye and cage. Cells were illuminated at 488±10 nm and fluorescence collected through a 525±25 nm band pass filter and captured using the Till Photonics imaging suite. […] Photolytic release was performed as previously described using a pulsed Xenon arc lamp (Till Photonics). […]
Transfected cells were simultaneously loaded with the visible wavelength indicator Fluo-4 and a cell-permeable form of caged inositol trisphosphate (ci-IP3/PM) for 30 min. ci-IP3/PM is a homologue of cm-IP3/PM. […] Cells were illuminated at 488±10 nm and fluorescence collected through a 525±25-nm bandpass filter and captured using the Till Photonics imaging suite. […]

S2− InsP3R-1 = assay: Potentiation of CCh-induced Ca2+ release after PKG activation (8-Br cGMP), S2− InsP3R-1 constructs in DT-40 3ko cells; format: cell-based, rat
Protocol: Transfected DT-40 3ko cells were washed once in a HEPES-buffered physiological saline solution (HEPES-PSS) containing (in mM) 5.5 glucose, 137 NaCl, 0.56 MgCl2, 4.7 KCl, 1 Na2HPO4, 10 HEPES (pH 7.4), 1.2 CaCl2 and 1% w/v Bovine Serum Albumin. Cells were then resuspended in BSA HEPES-PSS with 1 μM Fura-2 (AM), placed on a 15 mm glass coverslip in a low volume perfusion chamber (Warner Instruments) and allowed to adhere for 30 minutes at room temperature. Cells were perfused continually for 10 minutes with HEPES-PSS before experimentation to allow Fura-2 de-esterification. A field of cells for each experiment was chosen that contained a wide range of transfection efficiency based upon the intensity of red fluorescence emitted when excited at 560 nm. [Ca^2+]i imaging was performed essentially as previously described using an inverted epifluorescence Nikon microscope with a 40× oil immersion objective lens (numerical aperture, 1.3). […] Fluorescence images were captured and digitized with a digital camera driven by TILL Photonics software. […] 340/380 ratio images were calculated online and stored immediately to hard disk.
The effects of treatment were determined by normalizing the peak change in fluorescence ratio by stimulation following forskolin or 8-Br cGMP exposure to that of stimulation in control HEPES-PSS. […]

T1 sequence (P29994 1-2749 isoform P29994-3 S1755E): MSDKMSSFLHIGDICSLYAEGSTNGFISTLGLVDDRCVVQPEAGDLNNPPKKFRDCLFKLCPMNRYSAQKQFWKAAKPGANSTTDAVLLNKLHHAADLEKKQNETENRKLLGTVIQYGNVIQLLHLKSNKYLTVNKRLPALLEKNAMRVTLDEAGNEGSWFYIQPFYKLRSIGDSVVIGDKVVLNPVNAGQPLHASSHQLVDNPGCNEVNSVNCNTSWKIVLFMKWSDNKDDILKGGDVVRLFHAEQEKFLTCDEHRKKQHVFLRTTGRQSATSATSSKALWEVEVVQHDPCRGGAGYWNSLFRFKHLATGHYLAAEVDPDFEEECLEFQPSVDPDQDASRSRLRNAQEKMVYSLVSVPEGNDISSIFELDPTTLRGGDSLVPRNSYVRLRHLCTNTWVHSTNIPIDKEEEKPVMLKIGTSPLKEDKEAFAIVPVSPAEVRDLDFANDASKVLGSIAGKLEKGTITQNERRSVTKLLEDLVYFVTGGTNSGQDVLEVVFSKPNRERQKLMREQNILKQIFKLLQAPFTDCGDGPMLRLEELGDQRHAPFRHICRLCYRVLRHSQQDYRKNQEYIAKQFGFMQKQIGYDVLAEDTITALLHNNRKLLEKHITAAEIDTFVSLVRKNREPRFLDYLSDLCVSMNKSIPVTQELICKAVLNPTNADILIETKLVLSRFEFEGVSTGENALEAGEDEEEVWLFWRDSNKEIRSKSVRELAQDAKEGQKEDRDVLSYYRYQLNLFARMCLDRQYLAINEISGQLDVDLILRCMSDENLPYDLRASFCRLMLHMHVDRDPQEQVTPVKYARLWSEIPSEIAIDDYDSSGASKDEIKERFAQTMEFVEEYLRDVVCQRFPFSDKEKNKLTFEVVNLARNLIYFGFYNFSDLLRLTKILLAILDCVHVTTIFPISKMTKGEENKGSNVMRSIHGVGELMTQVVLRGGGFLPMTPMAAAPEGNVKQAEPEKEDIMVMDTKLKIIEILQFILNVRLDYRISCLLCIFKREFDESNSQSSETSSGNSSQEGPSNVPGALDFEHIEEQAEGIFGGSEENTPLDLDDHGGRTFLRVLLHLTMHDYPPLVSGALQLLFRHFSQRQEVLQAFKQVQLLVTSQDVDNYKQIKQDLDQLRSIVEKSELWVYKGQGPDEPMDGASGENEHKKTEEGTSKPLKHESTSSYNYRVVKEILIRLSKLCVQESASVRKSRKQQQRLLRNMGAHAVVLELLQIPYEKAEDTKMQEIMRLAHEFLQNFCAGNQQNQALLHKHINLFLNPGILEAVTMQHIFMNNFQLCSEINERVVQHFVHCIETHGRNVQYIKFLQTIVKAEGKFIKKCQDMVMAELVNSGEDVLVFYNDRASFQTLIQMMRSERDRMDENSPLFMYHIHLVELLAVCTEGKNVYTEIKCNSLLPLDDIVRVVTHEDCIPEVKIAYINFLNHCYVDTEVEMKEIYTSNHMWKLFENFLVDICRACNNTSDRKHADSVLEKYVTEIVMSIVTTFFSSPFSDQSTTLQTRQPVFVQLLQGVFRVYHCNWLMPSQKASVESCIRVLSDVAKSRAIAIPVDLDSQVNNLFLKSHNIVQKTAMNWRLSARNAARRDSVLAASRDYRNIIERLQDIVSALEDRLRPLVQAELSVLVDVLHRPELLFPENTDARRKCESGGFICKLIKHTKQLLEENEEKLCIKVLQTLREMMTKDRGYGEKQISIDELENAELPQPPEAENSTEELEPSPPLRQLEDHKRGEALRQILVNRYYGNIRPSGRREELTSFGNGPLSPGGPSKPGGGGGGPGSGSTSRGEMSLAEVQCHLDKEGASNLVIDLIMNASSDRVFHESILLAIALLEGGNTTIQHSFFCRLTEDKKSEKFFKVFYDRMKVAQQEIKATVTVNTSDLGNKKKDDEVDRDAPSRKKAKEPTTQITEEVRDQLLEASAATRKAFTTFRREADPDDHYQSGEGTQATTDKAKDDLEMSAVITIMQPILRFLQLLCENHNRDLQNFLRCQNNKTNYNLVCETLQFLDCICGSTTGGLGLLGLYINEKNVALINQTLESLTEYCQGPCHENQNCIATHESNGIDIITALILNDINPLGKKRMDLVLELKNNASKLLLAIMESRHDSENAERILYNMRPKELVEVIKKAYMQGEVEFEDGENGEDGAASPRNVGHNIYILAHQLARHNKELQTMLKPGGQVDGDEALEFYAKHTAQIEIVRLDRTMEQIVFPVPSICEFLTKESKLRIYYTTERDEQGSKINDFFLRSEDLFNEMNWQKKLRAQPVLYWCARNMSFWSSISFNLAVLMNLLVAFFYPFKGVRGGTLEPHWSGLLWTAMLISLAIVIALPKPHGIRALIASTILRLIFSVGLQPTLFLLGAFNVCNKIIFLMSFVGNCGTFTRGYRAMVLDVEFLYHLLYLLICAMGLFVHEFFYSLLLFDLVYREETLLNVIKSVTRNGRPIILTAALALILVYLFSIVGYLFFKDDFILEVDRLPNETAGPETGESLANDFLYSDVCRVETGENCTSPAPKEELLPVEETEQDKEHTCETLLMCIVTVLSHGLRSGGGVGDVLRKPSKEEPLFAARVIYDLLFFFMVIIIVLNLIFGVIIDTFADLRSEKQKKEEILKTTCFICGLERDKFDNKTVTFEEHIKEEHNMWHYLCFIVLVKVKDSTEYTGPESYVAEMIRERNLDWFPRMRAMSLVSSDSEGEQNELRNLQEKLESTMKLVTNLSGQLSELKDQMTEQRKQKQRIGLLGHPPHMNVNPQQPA

Substance | response to photolysis of ci-IP3 versus nonphosphorylatable mutant (S2+ InsP3R-1) | effect of 8-Br cGMP treatment on CCh-induced Ca^2+ release (S2− InsP3R-1; 10 μM 8-Br cGMP) | Ca^2+ release after PKG activation (S2− InsP3R-1; S2 − InsP3R-1 constructs, Table 2)
S2+SE: phosphomimetic S2+ InsP3R-1, long splice variant of S1755E | more robustly; also recorded: more sensitive than S2+SA | – | –
S2−WT: wild-type rat type-1 InsP3 receptor, peripheral short S2− splice variant (SEQ ID NO: 17) | – | no effect | no change

— US20080039410A1, “Inositol 1,4,5-Trisphosphate Receptor Mutants and Uses Thereof” (priority 2004, published 2008)
